Measurements from paper PMC4177084 (Journal of Thyroid Research, 2014).
pIC50: −log10 of the molar value.

How the values were obtained:
EPHB4 = target: T1, EPHB4 (Homo sapiens, UniProt P54760); test: Cell free kinase inhibition assay; type: biochemical
T1 construct: purchased Carna Biosciences, Inc. (Kobe, Japan)

FGR = target: T2, FGR (Homo sapiens, UniProt P09769); test: Cell free kinase inhibition assay; type: biochemical
T2 construct: purchased Carna Biosciences, Inc. (Kobe, Japan)

HTC/C3 cells = test: Antiproliferation assay (WST-8); type: cell-based; settings: Homo sapiens, 72 h; HTC/C3 (ATC), antiproliferative, 3 days
FGFR3(K650M) = target: T3, FGFR3(K650M) (Homo sapiens, UniProt P22607, K650M); test: Cell free kinase inhibition assay; type: biochemical
T3 construct: purchased Carna Biosciences, Inc. (Kobe, Japan)

TT cells = test: Antiproliferation assay (WST-8); type: cell-based; settings: Homo sapiens, 240 h; TT (MTC), antiproliferative, 10 days; read-out: IC50
KIT(T670I) = target: T4, KIT(T670I) (Homo sapiens, UniProt P10721, T670I); test: Cell free kinase inhibition assay; type: biochemical
T4 construct: purchased Carna Biosciences, Inc. (Kobe, Japan)

K1 cells = test: Antiproliferation assay (WST-8); type: cell-based, human; settings: Homo sapiens, 72 h; K1 (DTC), antiproliferative, 3 days
FLT1/VEGFR1 = target: T5, FLT1/VEGFR1 (Homo sapiens, UniProt P17948); test: Cell free kinase inhibition assay; type: biochemical
T5 construct: purchased Carna Biosciences, Inc. (Kobe, Japan)

HER2 = target: T6, HER2 (Homo sapiens, UniProt P04626); test: Cell free kinase inhibition assay; type: biochemical
T6 construct: purchased Carna Biosciences, Inc. (Kobe, Japan)

p70S6K = target: T7, p70S6K (Homo sapiens, UniProt P23443); test: Cell free kinase inhibition assay; type: biochemical
T7 construct: purchased Carna Biosciences, Inc. (Kobe, Japan)

FAK = target: T8, FAK (Homo sapiens, UniProt Q05397); test: Cell free kinase inhibition assay; type: biochemical
T8 construct: purchased Carna Biosciences, Inc. (Kobe, Japan)

FTC-133 cells = test: Antiproliferation assay (WST-8); type: cell-based, human; settings: Homo sapiens, 72 h; FTC-133 (DTC), antiproliferative, 3 days
8505C cells = test: Antiproliferation assay (WST-8); type: cell-based; settings: Homo sapiens, 72 h; 8505C (ATC), antiproliferative, 3 days
SYK = target: T9, SYK (Homo sapiens, UniProt P43405); test: Cell free kinase inhibition assay; type: biochemical
T9 construct: purchased Carna Biosciences, Inc. (Kobe, Japan)

PKACα = target: T10, PKACα (Homo sapiens, UniProt P17612); test: Cell free kinase inhibition assay; type: biochemical
T10 construct: purchased Carna Biosciences, Inc. (Kobe, Japan)

FRK = target: T11, FRK (Homo sapiens, UniProt P42685); test: Cell free kinase inhibition assay; type: biochemical
T11 construct: purchased Carna Biosciences, Inc. (Kobe, Japan)

BRK = target: T12, BRK (Homo sapiens, UniProt Q13882); test: Cell free kinase inhibition assay; type: biochemical
T12 construct: purchased Carna Biosciences, Inc. (Kobe, Japan)

CDK4 = target: T13, CDK4 (Homo sapiens, UniProt P11802); test: Cell free kinase inhibition assay; type: biochemical
T13 construct: purchased Carna Biosciences, Inc. (Kobe, Japan)

RET = test: Western blot of RET phosphorylation in TT xenografts; settings: 2 h after oral administration
JAK2 = target: T14, JAK2 (Homo sapiens, UniProt O60674); test: Cell free kinase inhibition assay; type: biochemical
T14 construct: purchased Carna Biosciences, Inc. (Kobe, Japan)

FGFR4 = target: T15, FGFR4 (Homo sapiens, UniProt P22455); test: Cell free kinase inhibition assay; type: biochemical
T15 construct: purchased Carna Biosciences, Inc. (Kobe, Japan)

K1 xenograft = test: Human thyroid cancer xenograft model, tumor growth; type: in vivo, nude mice; settings: K1 xenograft, 1, 3, and 10 mg/kg oral once daily 14 days
Procedure: (§1) Nude mice (CAnN.Cg-Foxn1nu/CrlCrlj, female, 5-6 weeks old) were obtained from Charles River Laboratories Japan (Kanagawa, Japan). Mice were maintained under specific pathogen-free conditions and housed in barrier facilities on a 12 h light/dark cycle, with food and water ad libitum. All procedures using laboratory animals were done in accordance with all applicable institutional and government regulatory guidelines and policies and were performed in an animal facility accredited by the Center for Accreditation of Laboratory Animal Care of the Japan Health Sciences Foundation. Tumor cells were cultured in appropriate culture mediums. […] Then, 0.1-0.2 mL of the cell suspension was inoculated subcutaneously into the right flank region of each mouse. […] The tumor size was measured in two dimensions by using a caliper, and the volume was calculated by using the formula: tumor volume (mm^3) = 1/2 length (mm) × [width (mm)]^2. The change in tumor volume in the treated group relative to that in the control group was calculated according to the following formula: ΔT/C = (ΔT/ΔC) × 100%, where ΔT and ΔC are the change in tumor volume (i.e., growth) for the treated and vehicle control group, respectively. The percentage of tumor growth inhibition (%TGI) was calculated from the formula: [(1 − ΔT/ΔC) × 100].

TT xenograft = test: Human thyroid cancer xenograft model, tumor growth; type: in vivo, nude mice
Procedure: as §1

T3 sequence (P22607 23-806 K650M): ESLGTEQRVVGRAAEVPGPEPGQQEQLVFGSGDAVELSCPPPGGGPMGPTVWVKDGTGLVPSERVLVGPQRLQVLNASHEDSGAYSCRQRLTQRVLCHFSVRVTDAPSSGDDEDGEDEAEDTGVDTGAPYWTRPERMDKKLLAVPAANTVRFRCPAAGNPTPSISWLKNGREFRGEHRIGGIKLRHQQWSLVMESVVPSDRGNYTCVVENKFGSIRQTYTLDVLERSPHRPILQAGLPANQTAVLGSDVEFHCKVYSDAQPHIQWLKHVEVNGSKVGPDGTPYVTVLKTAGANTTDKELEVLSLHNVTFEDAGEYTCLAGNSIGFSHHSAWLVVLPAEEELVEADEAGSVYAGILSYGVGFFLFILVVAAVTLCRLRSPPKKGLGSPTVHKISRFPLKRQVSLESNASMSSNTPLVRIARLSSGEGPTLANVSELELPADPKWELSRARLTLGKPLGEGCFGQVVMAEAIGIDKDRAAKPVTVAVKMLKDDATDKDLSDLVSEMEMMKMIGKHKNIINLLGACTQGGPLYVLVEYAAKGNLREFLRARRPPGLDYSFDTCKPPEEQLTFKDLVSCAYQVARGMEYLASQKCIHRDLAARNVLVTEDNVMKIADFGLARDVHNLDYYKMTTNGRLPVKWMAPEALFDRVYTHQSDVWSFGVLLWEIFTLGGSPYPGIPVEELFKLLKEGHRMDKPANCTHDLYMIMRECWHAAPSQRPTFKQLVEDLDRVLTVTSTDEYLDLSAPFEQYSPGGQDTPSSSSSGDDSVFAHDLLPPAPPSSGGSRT
T7 sequence (P23443 whole entry): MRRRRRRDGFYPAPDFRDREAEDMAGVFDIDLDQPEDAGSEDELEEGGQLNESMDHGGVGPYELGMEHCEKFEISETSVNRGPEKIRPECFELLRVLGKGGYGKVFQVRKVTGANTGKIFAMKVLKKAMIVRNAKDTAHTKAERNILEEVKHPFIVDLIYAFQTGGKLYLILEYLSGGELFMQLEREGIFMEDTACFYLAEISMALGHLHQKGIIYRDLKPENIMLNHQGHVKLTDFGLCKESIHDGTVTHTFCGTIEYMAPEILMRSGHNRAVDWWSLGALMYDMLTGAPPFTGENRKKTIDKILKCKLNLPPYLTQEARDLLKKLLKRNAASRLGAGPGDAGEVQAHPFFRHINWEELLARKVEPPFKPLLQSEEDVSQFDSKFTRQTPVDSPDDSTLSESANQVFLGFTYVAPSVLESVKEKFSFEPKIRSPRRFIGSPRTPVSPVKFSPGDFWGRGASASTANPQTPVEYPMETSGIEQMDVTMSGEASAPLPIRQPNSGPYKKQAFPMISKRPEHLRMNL
T11 sequence (P42685 whole entry): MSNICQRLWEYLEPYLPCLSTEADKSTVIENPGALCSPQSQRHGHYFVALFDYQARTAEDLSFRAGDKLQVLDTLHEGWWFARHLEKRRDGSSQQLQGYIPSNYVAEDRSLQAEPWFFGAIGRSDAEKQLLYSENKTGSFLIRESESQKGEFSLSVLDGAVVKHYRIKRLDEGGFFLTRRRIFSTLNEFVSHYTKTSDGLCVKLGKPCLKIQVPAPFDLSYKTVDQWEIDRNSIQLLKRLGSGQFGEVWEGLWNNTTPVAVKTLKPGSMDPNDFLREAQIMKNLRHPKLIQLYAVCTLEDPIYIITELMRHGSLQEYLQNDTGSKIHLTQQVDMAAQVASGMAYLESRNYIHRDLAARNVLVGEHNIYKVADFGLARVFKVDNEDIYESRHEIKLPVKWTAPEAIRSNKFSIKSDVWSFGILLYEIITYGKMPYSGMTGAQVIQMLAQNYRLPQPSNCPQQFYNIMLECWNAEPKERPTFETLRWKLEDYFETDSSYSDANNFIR
T12 sequence (Q13882 whole entry): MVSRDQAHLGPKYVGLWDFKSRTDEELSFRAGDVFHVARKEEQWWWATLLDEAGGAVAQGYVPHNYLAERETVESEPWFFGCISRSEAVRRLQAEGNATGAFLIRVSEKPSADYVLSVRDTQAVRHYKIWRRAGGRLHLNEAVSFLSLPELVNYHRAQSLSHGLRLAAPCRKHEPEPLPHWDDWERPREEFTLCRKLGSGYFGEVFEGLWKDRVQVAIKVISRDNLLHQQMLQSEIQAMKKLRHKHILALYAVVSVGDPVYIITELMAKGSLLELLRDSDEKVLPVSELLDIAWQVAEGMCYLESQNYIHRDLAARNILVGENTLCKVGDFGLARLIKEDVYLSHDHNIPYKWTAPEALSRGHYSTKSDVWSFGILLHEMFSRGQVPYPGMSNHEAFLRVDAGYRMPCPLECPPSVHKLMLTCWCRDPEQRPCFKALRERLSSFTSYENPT
T5 sequence (P17948 27-1338): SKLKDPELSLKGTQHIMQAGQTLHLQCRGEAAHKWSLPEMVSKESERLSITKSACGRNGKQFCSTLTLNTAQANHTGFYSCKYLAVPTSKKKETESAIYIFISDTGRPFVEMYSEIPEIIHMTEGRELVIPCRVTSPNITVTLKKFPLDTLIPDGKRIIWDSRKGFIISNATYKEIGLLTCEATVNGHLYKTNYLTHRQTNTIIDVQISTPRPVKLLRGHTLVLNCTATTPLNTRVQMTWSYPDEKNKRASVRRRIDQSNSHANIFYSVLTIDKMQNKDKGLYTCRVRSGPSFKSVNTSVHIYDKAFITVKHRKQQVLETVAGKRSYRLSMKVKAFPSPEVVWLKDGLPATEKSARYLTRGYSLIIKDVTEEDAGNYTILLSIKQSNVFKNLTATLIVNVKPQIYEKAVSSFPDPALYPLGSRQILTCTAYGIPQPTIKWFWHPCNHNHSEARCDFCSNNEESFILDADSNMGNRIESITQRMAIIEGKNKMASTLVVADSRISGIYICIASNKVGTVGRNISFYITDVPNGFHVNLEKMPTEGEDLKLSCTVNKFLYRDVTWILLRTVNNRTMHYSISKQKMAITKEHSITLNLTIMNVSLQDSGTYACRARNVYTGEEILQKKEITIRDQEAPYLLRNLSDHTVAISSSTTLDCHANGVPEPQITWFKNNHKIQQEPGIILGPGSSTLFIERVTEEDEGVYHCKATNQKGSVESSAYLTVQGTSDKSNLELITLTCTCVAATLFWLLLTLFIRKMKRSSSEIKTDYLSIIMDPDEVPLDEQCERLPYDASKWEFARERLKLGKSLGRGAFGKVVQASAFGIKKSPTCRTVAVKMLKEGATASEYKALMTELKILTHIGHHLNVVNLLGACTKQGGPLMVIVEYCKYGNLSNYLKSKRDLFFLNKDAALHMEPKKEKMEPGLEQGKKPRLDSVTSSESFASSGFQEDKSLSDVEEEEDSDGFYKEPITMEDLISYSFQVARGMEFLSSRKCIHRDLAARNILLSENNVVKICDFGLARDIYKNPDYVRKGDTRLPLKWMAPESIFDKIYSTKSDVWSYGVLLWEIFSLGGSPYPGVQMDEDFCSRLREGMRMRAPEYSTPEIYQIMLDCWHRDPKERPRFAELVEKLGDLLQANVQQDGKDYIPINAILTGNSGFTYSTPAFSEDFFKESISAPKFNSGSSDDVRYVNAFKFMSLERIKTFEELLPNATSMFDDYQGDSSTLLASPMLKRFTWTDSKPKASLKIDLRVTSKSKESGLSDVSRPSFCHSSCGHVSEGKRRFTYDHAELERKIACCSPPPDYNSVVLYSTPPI
T15 sequence (P22455 22-802): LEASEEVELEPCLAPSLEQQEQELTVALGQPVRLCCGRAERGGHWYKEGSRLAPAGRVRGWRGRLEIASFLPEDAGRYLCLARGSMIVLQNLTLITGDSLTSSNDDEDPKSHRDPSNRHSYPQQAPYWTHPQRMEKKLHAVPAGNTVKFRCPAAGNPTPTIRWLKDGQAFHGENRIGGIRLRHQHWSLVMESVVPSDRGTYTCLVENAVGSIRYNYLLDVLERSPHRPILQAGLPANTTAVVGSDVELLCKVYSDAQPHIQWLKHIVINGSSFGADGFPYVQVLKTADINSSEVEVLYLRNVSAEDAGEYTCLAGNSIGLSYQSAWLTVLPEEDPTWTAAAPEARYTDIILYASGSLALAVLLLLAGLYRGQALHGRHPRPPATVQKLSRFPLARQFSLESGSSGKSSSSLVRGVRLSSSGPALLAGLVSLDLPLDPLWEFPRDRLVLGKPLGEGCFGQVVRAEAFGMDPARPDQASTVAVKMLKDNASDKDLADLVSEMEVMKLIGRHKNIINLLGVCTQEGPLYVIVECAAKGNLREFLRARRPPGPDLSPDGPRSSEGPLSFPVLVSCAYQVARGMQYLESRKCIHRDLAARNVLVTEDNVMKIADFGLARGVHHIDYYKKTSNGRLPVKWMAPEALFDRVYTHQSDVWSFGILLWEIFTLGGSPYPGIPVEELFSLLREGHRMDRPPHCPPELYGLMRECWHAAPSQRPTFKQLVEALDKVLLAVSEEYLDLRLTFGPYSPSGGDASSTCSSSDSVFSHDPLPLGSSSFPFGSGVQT
T13 sequence (P11802 whole entry): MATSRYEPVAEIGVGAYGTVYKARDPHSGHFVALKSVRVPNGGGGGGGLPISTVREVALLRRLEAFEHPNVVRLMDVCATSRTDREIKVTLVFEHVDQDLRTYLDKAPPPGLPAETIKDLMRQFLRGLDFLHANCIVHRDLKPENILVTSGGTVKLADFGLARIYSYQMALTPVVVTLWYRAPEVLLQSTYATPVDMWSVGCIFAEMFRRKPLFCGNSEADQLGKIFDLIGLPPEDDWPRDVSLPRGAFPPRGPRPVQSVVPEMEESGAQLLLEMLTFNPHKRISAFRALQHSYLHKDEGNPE
T13 sequence (P30281 whole entry partner): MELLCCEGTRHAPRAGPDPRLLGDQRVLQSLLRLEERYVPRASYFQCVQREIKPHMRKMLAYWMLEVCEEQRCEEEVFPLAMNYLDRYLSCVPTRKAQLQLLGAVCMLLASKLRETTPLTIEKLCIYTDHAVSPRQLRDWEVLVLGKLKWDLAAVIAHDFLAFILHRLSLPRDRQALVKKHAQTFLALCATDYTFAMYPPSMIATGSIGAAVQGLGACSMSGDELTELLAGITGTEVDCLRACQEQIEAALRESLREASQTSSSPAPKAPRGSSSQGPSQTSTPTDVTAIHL

COc1cc2nccc(Oc3ccc(NC(=O)NC4CC4)c(Cl)c3)c2cc1C(N)=O [Lenvatinib, Lenvatinib mesilate]
pIC50 (EPHB4): 5.34 | pIC50 (FGR): 6.04 | pIC50 (HTC/C3 cells): 4.55 | pIC50 (FGFR3(K650M)): 6.60 | pIC50 (TT cells): 7.11 | pIC50 (KIT(T670I)): 6.39 | pIC50 (K1 cells): 4.66 | pIC50 (FLT1/VEGFR1): 8.33 | pIC50 (HER2): < 5.00 | pIC50 (p70S6K): < 5.00 | pIC50 (FAK): < 5.00 | pIC50 (FTC-133 cells): 4.62 | pIC50 (8505C cells): 4.59 | pIC50 (SYK): 5.06 | pIC50 (PKACα): < 5.00 | pIC50 (FRK): 6.80 | pIC50 (BRK): 6.77 | pIC50 (CDK4): < 5.00 | RET phosphorylation (RET): inhibition of RET phosphorylation | pIC50 (JAK2): < 5.00 | pIC50 (FGFR4): 7.37 | antitumor activity (K1 xenograft): significant antitumor activity | tumor volume change (TT xenograft; TT xenografts, 100 mg/kg oral once daily 29 days): tumor shrinkage | in vivo tumor growth (TT xenograft; TT xenografts, 10, 30, and 100 mg/kg oral once daily 29 days): inhibited in vivo tumor growth of TT xenografts in a dose-dependent manner
